The target of this assay is Beta-secretase 1 (Homo sapiens, UniProt P56817). Put plainly: Inhibition of BACE1 in human SH-SY5Y cells assessed as release of sAPPbeta after 17 hrs. It is filed as cell-based.

This note sets out measurements from ChEMBL document CHEMBL2406975, “β-Secretase Inhibitors for the Treatment of Alzheimer's Disease and Down's Syndrome” (ACS Med Chem Lett, 2013).

Chain of Beta-secretase 1 (P56817 whole entry): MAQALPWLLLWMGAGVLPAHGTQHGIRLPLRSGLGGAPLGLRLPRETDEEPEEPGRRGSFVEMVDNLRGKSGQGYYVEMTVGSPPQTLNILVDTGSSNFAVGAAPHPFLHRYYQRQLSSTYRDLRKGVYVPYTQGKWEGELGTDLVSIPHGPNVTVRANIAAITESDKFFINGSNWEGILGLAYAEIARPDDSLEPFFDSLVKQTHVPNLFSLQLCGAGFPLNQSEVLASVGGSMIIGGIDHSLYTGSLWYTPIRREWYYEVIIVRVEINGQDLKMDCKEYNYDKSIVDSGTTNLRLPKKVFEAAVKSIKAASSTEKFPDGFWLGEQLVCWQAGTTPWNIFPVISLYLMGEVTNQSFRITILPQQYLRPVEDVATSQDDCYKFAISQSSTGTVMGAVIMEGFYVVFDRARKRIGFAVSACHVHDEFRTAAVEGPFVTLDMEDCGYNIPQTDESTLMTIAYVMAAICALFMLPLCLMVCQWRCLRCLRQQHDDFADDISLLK

The IC50 is the concentration that gives 50% inhibition. For `CC1(C)Cc2ccc(-c3cncnc3)cc2C12C=C(F)C(N)=N2` (centres undefined), the IC50 turned out to be 168 nM. With `CC#Cc1cncc(-c2ccc3c(c2)C2(C=C(F)C(N)=N2)[C@]2(CC[C@H](OC)CC2)C3)c1` (some centres undefined) the figure was 0.031 nM; with `CO[C@H]1CC[C@]2(CC1)Cc1ccc(-c3cncnc3)cc1C21C=C(F)C(N)=N1` (some centres undefined), 1.1 nM; with `CC#Cc1cncc(-c2ccc3c(c2)C2(C=C(F)C(N)=N2)[C@]2(CC[C@@H](OC)CC2)C3)c1` (some centres undefined), 1.1 nM.
